# Experimental data: paper PMC10375898 (2023)
# Assays:
# [1] = system: r(CUG)10 (RNA, repeat) CUGCUGCUGCUGCUGCUGCUGCUGCUGCUG; assay: in vitro Chem-CLIP (photo-cross-linking pull-down); conditions: covalent; 26 ± 7% pulled down at 100 μM
# [2] = system: r(CUG)8 with GAAA hairpin loop (RNA, repeat) CCGCUGCUGCUGCUGCGAAAGCUGCUGCUGCUGCGG; assay: in vitro Chem-CLIP (photo-cross-linking pull-down); conditions: covalent; 100 μM
# [3] = system: 5'-(GACAGCUGCUGUC)2-3' duplex (single 5'CUG/3'GUC) (RNA, mismatch bulge abasic) GACAGCUGCUGUC; assay: To-Pro-1 dye displacement (fluorescence); conditions: Na+ 200 mM NaCl, 8 mM NaH2PO4; To-Pro-1 (100 nM) displaced; Kd from competitive fit (Ki)
# [4] = system: 5'-(GACAGCUGCUGUC)2-3' duplex (single 5'CUG/3'GUC) (RNA, mismatch bulge abasic) GACAGCUGCUGUC; assay: NMR (WaterLOGSY, 1D 1H imino and aromatic); conditions: 10 mM Na2HPO4/NaH2PO4, pH 6.0, 0.05 mM EDTA
# [5] = system: r(CUG)10 (RNA, repeat) CUGCUGCUGCUGCUGCUGCUGCUGCUGCUG; assay: competitive Chem-CLIP; conditions: competes with 50 μM of 1; 0 to 500 μM
# [6] = system: 5'-(GACAGCUGCUGUC)2-3' duplex (single 5'CUG/3'GUC) (RNA, mismatch bulge abasic) GACAGCUGCUGUC; assay: fluorescence titration; conditions: Na+ 200 mM NaCl; 8 mM NaH2PO4, pH 7.0, 1 mM EDTA, 40 µg/mL BSA, room temperature; 100 nM dye
SMILES,binding [1],binding [2],Kd [3],binding [4],binding [5],Kd [6]
C#CCCC1(CCC(=O)NC2=Nc3cccc4cccc(c34)N2)N=N1,yes,yes,1200 ± 200 nM,–,–,–
CCC(=O)NC1=Nc2cccc3cccc(c23)N1,–,–,1400 ± 300 nM,yes,yes,–
C[n+]1c(C=C2C=CN(CCC[N+](C)(C)C)c3ccccc32)sc2ccccc21,–,–,–,–,–,31 ± 2 nM
